# According to ChEMBL document CHEMBL1201862, “PubChem BioAssay data set” (2004):
# Active and inactive are the calls of the source.
# Columns and labels:
# [1] = SNU-C1 cell viability reduction, dose response, CellTiter-Glo luminescence (AID 1117323); assay type: functional, cell-based
# [2] = Concentration-dependent survival of SW480 colon cancer line, luminescence detection with CellTiter-Glo, half-maximal inhibitory concentration (AID 1117338); assay type: functional
# [3] = HeLa 4N DNA content increase, dose response, cell-based, IC50 (AID 1117351); assay type: functional
# [4] = HCT116 cell viability decrease, GSK3B pretreatment – CellTiter-Glo, IC50, dose response (AID 1117339); assay type: functional; conditions: HCT-116
# [5] = HeLa 2N DNA content increase, dose response, cell-based, IC50 (AID 1117349); assay type: functional
# [6] = RKO cell viability reduction, dose response, CellTiter-Glo luminescence (AID 1117322); assay type: functional
# [7] = cytotoxicity toward HCT116 cells – cell-based, CellTiter-Glo luminescence, IC50, dose response (AID 1117332); assay type: functional; conditions: HCT-116
# [8] = CellTiter-Glo luminescent dose response of DLD-1 viability loss (AID 1117352); assay type: functional
# [9] = cytotoxicity toward Colo320 cells – cell-based, CellTiter-Glo luminescence, IC50, dose response (AID 1117334); assay type: functional; conditions: COLO 320
# Prothrombin = Prothrombin (Bos taurus, UniProt P00735); assay: thrombin inhibition, dose response, biochemical, fluorescence polarization, uHTS hits (AID 602369); assay type: functional
# [10] = target: 72 kDa type IV collagenase (Homo sapiens, UniProt P08253); assay: Dose Response validation of uHTS RPN11 inhibitor hits using a MMP-2 Fluorescence assay.; assay type: functional
# 72 kDa type IV collagenase, sequence (P08253 whole entry): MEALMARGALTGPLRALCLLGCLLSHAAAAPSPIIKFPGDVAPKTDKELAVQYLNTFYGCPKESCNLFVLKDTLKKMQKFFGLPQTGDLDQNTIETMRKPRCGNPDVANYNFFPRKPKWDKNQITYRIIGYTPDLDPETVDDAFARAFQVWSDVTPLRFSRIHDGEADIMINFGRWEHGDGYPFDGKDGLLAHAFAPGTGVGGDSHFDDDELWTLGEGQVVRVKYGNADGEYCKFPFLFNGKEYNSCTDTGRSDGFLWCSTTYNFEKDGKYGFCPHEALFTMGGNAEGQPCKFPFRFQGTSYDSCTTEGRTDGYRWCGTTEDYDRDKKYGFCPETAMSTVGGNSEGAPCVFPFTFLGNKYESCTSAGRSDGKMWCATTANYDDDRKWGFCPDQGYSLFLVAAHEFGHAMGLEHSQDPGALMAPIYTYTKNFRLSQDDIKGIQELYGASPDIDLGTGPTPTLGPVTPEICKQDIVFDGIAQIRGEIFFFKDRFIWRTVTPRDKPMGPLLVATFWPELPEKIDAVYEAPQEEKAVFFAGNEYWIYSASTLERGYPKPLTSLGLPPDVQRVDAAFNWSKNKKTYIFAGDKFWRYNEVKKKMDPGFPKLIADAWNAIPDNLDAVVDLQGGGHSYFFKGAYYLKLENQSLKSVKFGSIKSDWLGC
# Caspase-6 = Caspase-6 (Homo sapiens, UniProt P55212); assay: human caspase-6 inhibitors, dose response, biochemical, VEID-R110 fluorescence, cherry-pick (AID 720632)
# Caspase-6, sequence (P55212 24-179 limits assumed): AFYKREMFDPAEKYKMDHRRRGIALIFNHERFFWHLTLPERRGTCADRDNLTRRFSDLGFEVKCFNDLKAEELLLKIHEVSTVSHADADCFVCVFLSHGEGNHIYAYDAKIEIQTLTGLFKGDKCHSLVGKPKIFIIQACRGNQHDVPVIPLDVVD
# Caspase-6, sequence (P55212 194-293 limits assumed): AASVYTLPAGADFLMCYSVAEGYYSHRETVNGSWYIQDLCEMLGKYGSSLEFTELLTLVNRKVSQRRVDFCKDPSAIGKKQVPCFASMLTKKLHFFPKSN
# [11] = target: 26S proteasome non-ATPase regulatory subunit 14 (Homo sapiens, UniProt O00487); assay: inhibition of proteasome subunit RPN11 – biochemical, fluorescence polarization, uHTS hits, confirmation (AID 602368); assay type: functional
# 26S proteasome non-ATPase regulatory subunit 14, sequence (O00487 whole entry): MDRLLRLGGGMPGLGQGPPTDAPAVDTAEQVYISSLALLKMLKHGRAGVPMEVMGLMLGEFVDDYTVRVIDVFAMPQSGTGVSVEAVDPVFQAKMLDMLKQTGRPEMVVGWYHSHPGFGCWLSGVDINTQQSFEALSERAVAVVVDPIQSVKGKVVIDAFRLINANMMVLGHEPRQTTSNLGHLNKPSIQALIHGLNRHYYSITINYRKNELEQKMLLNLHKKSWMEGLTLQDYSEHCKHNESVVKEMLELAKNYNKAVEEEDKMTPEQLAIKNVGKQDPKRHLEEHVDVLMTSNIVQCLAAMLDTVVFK
# Kallikrein-7 = Kallikrein-7 (Homo sapiens, UniProt P49862); assay: Fluorescence Intensity-based biochemical primary high throughput dose response assay to identify activators of kallikrein-7 (K7) zymogen.
# Kallikrein-7, sequence (P49862 whole entry): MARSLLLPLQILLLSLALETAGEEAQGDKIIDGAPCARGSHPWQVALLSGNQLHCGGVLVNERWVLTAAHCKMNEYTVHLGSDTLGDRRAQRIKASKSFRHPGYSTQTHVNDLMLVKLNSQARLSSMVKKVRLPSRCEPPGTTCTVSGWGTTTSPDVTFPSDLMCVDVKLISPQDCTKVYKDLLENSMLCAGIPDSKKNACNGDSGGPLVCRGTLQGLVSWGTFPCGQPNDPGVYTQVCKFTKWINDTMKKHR
# [12] = target: G-protein coupled receptor 183 (Homo sapiens, UniProt P32249); assay: SAR confirmation of small molecule antagonists of the EBI2 receptor via a luminescent beta-arrestin assa.; assay type: functional
# G-protein coupled receptor 183, sequence (P32249 whole entry): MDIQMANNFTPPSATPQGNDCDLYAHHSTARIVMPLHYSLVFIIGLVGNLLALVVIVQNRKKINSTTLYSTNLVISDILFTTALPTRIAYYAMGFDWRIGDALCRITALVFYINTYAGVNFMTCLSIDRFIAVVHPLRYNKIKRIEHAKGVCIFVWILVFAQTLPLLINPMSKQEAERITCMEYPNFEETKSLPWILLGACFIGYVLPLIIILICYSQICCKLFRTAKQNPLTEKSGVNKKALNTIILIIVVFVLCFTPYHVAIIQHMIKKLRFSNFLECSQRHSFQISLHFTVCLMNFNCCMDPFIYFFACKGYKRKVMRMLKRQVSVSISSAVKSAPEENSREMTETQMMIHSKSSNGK
# [13] = HepG2 cell cytotoxicity, dose response, cytotoxicity control, plate reader, dry powder samples (AID 1159569); assay type: functional, cell-based;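 further: inhibitor potency with signal falling toward the positive control level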
# [14] = cytotoxicity in OVCAR8 ovarian cancer cells, dose response, PAX8 project, cell-based, plate reader, dry powder samples (AID 743197); assay type: functional; conditions: OVCAR-8
# [15] = P. falciparum 3D7-ScDHODH growth inhibitors, dose response, SYBR Green, dry powder samples (AID 1159570); assay type: functional, cell-based;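 further: parasite growth measured after 72 hours of compound exposure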
# [16] = NIH:OVCAR-3 ovarian cancer cell cytotoxicity, dose response, PAX8 inhibitor project, plate reader, dry powder samples (AID 743044); assay type: functional, cell-based
# [17] = non-specific cell cytotoxicity, dose response, cytotoxicity control for PAX8 inhibitor project, plate reader, dry powder samples (AID 743021); assay type: functional, cell-based
# Paired box protein Pax-8 = Paired box protein Pax-8 (Homo sapiens, UniProt Q06710); assay: inhibitors of PAX8-driven TPO luciferase reporter, dose response, RMG-I cells, cherry-pick (AID 687027); assay type: functional, cell-based;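 further: luciferase reporter driven by Pax8 target thyroperoxidase promoter measured by SteadyGlo luminescence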
# Paired box protein Pax-8, sequence (Q06710 whole entry): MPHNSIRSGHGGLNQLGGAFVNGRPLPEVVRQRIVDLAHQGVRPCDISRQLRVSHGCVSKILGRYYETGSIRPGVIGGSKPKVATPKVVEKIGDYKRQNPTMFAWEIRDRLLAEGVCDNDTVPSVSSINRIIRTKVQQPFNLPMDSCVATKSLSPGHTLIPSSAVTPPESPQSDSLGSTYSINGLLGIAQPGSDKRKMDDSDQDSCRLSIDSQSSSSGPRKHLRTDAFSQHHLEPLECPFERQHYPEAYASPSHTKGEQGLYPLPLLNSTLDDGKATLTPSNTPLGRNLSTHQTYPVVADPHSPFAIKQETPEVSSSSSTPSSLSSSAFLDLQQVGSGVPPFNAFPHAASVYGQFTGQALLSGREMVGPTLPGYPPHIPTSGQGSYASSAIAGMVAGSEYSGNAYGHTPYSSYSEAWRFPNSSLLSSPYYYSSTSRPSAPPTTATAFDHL
# [18] = P. falciparum ATP4 D1247Y mutant growth inhibitors, dose response, NITD609-resistant line, SYBR Green, dry powder (AID 1159571); assay type: functional, cell-based;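 further: parasites synchronized at ring stage by sorbitol before testing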
# [19] = IGROV1 ovarian cancer cell cytotoxicity, dose response, PAX8 inhibitor project, plate reader, dry powder samples (AID 743043); assay type: functional, cell-based; conditions: IGROV-1
# [20] = P. falciparum Dd2 growth inhibitors, dose response, SYBR Green, cherry-picked samples (AID 1159567); assay type: functional, cell-based
# [21] = P. falciparum Dd2 growth inhibitors, dose response, SYBR Green, dry powder samples (AID 1159566); assay type: functional, cell-based;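 further: potency for growth inhibition with lower SYBR green DNA signal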
# [22] = IOSE-T80 ovarian epithelial cell cytotoxicity, dose response, cytotoxicity control for PAX8 inhibitor project, plate reader, dry powder samples (AID 743045); assay type: functional, cell-based
# [23] = A2780 ovarian cancer cell cytotoxicity, dose response, cytotoxicity control, plate reader, dry powder samples (AID 743046); assay type: functional, cell-based
# [24] = target: NAD-dependent protein deacylase sirtuin-5, mitochondrial (Homo sapiens, UniProt Q9NXA8); assay: SIRT5 desuccinylase inhibitors, dose response, biochemical, fluorescence imaging, cherry-pick, set 5 (AID 720591);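 further: desuccinylation of succinyl peptide AMC substrate read as fluorescence after trypsin release; potency of inhibitors that lower fluorescence and may act on trypsin instead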
# NAD-dependent protein deacylase sirtuin-5, mitochondrial, sequence (Q9NXA8 whole entry): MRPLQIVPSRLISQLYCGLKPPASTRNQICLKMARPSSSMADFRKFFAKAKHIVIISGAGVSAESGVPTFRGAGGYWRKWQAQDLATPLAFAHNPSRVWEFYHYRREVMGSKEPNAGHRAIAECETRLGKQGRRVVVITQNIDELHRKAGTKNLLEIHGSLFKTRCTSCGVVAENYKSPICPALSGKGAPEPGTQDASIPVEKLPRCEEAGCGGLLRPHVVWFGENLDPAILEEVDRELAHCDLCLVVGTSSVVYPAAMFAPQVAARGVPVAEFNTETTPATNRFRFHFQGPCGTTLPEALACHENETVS
# Protein skinhead-1 = target: T1, Protein skinhead-1 (Caenorhabditis elegans, UniProt P34707); assay type: functional
# T1 sequence (P34707 whole entry): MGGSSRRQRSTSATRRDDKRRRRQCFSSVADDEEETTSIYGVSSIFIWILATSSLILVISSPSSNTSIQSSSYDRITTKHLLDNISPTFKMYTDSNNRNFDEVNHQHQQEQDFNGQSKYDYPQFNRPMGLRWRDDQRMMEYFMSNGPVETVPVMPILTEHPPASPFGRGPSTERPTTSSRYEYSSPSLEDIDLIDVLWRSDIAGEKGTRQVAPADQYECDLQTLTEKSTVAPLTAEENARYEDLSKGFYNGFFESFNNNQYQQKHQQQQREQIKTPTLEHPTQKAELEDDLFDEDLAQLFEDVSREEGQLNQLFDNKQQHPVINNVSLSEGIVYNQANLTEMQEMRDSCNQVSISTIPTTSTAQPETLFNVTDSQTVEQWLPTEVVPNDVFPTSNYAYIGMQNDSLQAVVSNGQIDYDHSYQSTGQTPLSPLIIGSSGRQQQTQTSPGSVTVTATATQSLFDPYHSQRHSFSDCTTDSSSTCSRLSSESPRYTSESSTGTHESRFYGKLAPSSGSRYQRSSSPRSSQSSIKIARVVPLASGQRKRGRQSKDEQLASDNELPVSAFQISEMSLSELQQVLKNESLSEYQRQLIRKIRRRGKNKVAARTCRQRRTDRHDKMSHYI
# [25] = target: E3 ubiquitin-protein ligase UHRF1 (Homo sapiens, UniProt Q96T88); assay: Counterscreen for inhibitors of 5-meCpG-binding domain protein 2 (MBD2): TRFRET-based biochemical high throughput dose response assay to identify inhibitors of binding of ubiquitin-like with PHD and ring finger domains 1 (UHRF1) to methylated oligonucleotide.
# E3 ubiquitin-protein ligase UHRF1, sequence (Q96T88 whole entry, the tested form may be a part): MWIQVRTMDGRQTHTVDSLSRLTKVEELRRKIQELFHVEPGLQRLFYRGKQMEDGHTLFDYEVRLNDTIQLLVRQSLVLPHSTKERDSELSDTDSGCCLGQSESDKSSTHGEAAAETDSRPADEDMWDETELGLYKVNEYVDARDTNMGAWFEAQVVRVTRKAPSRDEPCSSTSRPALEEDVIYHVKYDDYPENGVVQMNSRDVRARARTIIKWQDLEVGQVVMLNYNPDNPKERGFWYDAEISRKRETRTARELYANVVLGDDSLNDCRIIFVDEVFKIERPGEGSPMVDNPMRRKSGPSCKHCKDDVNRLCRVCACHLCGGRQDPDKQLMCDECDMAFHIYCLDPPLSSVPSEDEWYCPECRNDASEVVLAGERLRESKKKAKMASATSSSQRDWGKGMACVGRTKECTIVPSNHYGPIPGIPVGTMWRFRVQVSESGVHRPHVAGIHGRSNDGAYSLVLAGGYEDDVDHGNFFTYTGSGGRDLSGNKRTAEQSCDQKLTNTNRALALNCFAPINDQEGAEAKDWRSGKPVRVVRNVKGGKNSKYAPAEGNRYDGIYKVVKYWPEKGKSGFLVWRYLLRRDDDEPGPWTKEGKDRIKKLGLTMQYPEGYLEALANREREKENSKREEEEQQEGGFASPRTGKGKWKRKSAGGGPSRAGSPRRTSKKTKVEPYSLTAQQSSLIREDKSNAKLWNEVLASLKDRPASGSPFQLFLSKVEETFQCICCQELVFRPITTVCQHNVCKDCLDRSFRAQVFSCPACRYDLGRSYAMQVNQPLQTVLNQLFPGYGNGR
# [26] = target: Oxysterols receptor LXR-beta (Homo sapiens, UniProt P55055); assay: LXR agonists, Gal4 luciferase reporter, dose response, counter-screen for ssDAF-12 agonist project, cell-based, luminescence, HEK293, S. stercoralis campaign (AID 720737); assay type: functional; conditions: read-out: IC50 (the source's name)
# Oxysterols receptor LXR-beta, sequence (P55055 whole entry, the tested form may be a part): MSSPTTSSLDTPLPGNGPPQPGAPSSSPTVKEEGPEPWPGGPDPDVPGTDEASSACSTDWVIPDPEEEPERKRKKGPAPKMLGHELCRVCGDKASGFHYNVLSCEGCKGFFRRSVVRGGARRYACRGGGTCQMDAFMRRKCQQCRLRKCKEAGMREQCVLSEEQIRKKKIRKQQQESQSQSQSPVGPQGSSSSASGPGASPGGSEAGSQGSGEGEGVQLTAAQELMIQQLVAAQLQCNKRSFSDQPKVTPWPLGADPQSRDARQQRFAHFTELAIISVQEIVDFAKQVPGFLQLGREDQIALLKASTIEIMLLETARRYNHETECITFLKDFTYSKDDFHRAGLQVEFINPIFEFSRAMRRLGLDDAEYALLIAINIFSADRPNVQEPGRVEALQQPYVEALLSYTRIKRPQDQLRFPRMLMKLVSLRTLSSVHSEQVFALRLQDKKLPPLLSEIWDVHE
# [27] = Luminescence-based cell-based high throughput dose response assay to identify activators of the DAF-12 from the parasite S. stercoralis (ssDAF-12).; assay type: functional
compound,measurement,setting,value
O=C1C(I)=CC(=C(c2cc(I)c(O)c(I)c2)c2ccccc2C(=O)O)C=C1I [IODOPHTHALEIN SODIUM],IC50,[1],3.76 µM (active)
same,IC50,[2],0.112 µM (active)
same,IC50,[3],> 10 µM (inactive)
same,IC50,[4],0.054 µM (active)
same,IC50,[5],> 10 µM (inactive)
same,IC50,[6],0.0373 µM (active)
same,IC50,[7],0.384 µM (active)
same,IC50,[8],0.0132 µM (active)
same,IC50,[9],0.312 µM (active)
CN(CC(=O)Nc1ccc(F)c(F)c1F)C(=O)CCc1nc(O)c2c3c(sc2n1)CCCC3,IC50,Prothrombin,61.3 µM (active)
same,IC50,[10],> 100 µM (inactive)
same,AC50,Caspase-6,18.6 µM (active)
same,IC50,[11],46.5 µM (active)
COc1cccc(CNC(=O)c2ccc3c(c2)N(C)CCS3)c1OC,EC50,Kallikrein-7,> 69.5 µM (inactive)
O=C(/C=C/c1ccc(F)cc1)N1CCN(S(=O)(=O)c2ccc(F)cc2)CC1,IC50,[12],0.0185 µM (active)
C[C@H]1CN([C@@H](C)CO)C(=O)c2c(c3ccccc3n2C)-c2ccccc2CO[C@H]1CN(C)S(=O)(=O)c1ccc([N+](=O)[O-])cc1,AC50,[13],66.4 µM (active)
same,AC50,[14],10.2 µM (active)
same,AC50,[15],0.298 µM (active)
same,AC50,[16],10.1 µM (active)
same,AC50,[17],48.5 µM (active)
same,AC50,Paired box protein Pax-8,2.72 µM (active)
same,AC50,[18],0.237 µM (active)
same,AC50,[19],12.2 µM (active)
same,AC50,[20],0.629 µM (active)
same,AC50,[21],0.234 µM (active)
same,AC50,[22],22.3 µM (active)
same,AC50,[23],12.7 µM (active)
Fc1ccc(-c2nc3ccc(Cl)cn3c2Cc2ccsc2)cc1,AC50,[24],25.8 µM (active)
same,IC50,Protein skinhead-1,70.3 µM (inactive)
CC(=O)Nc1sc2c(c1-c1nc3ccccc3s1)CCCNC2,IC50,[25],15.3 µM (inactive)
CCc1ccc(-c2csc3ncn(CC)c(=O)c23)cc1,EC50,[26],> 67.6 µM (inactive)
same,IC50,[27],> 67.6 µM (inactive)
